Experimental data published in patent publication US5688950A, “Tricyclic aminoalkylcarboxamides; novel dopamine D3 receptor subtype specific ligands” (Neurogen Corporation, priority 1996, dated 1997).
Structures can show the parent of a compound that is named as a salt. Where two headings read alike, the source gives them in different places.

Tests used:
D2 receptor = molecular target: T1, D2 receptor (Chlorocebus aethiops, UniProt P52702); assay: D2 receptor binding activity (pellets of COS cells, 3H-YM 09151-2); design: species or system African Green monkey; conditions: 0.5 nM 3H-YM 09151-2, pH 7.4; nonspecific with 1 mM spiperone
T1 construct: expressed in transfected cells; host or cells: COS cells
Procedure: (§1) Pellets of COS cells containing recombinantly produced D2 or D3 receptors from African Green monkey were used for the assays. The sample is homogenized in 100 volumes (w/vol) of 0.05M Tris HCl buffer at 4° C. and pH 7.4. The sample is then centrifuged at 30,000×g and resuspended and rehomogenized. The sample is then centrifuged as described and the final tissue sample is frozen until use. The tissue is resuspended 1:20 (wt/vol) in 0.05M Tris HCl buffer containing 100 mM NaCl.
(§2) Incubations are carried out at 48° C. and contain 0.4 ml of tissue sample, 0.5 nM ^3 H-YM 09151-2 and the compound of interest in a total incubation of 1.0 ml. Nonspecific binding is defined as that binding found in the presence of 1 mM spiperone; without further additions, nonspecific binding is less than 20% of total binding. The binding characteristics of representative compounds of the invention for D2 and D3 receptor subtypes are shown in Table 1 for rat striatal homogenates.

D3 receptor = molecular target: T2, D3 receptor (Chlorocebus aethiops, UniProt P52703); assay: D3 receptor binding activity (pellets of COS cells, 3H-YM 09151-2); design: species or system African Green monkey
T2 construct: expressed in transfected cells; host or cells: COS cells
Procedure: as §1, §2

[1] = 0.5 nM 3H-YM 09151-2, pH 7.4, nonspecific with 1 mM spiperone, read-out: D3 Ki

T2 sequence (P52703 whole entry): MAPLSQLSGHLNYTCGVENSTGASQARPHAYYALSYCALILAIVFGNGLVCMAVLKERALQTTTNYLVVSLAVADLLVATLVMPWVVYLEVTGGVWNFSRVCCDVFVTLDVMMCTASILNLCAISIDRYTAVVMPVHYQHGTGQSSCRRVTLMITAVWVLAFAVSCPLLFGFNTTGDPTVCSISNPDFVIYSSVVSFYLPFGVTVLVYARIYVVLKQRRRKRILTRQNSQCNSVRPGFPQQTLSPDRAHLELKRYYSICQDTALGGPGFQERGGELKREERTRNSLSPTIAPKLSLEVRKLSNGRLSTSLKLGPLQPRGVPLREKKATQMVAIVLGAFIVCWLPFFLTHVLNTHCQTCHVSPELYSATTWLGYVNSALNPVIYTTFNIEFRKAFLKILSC
T1 sequence (P52702 whole entry): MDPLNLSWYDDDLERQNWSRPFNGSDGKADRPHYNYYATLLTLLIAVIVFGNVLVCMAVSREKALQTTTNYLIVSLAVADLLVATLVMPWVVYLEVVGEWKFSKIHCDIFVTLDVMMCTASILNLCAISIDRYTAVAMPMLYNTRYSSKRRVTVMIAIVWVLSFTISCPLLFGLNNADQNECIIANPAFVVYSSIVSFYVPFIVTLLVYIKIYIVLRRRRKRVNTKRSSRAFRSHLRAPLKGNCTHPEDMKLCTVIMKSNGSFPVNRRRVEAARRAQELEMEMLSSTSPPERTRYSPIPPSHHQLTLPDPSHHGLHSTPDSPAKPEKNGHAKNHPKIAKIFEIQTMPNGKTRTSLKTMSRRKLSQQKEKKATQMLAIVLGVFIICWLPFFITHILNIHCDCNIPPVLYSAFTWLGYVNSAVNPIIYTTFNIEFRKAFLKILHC

Compound | Ki (D2 receptor) | Ki (D3 receptor; [1]) | Ki (D3 receptor)
O=C(NCCCCN1CCC2=C(CCc3ccccc32)C1)c1ccc(-c2ccccc2)cc1 [Compound 13, N-{4-(1,2,3,4,5,6-hexahydrobenz[f]isoquinolin-2-yl)butyl}-biphenyl-4-carboxamide hydrochloride] | 362 nM |  | 10 nM
O=C(NCCCCN1CCc2c(ccc3ccccc23)C1)c1cnc2ccccc2n1 [Compound 8, N-{4-(1,2,3,4-tetrahydrobenz[f]isoquinolin-2-yl)butyl}-quinoxaline-2-carboxamide hydrochloride] | 250 nM | 12 nM | 
O=C(NCCCCN1CCc2c(ccc3ccccc23)C1)c1ccc2sc3ccccc3c2c1 [Compound 7, N-{4-(1,2,3,4-tetrahydrobenz[f]isoquinolin-2-yl)butyl}-dibenzothiophene-2-carboxamide hydrochloride] | 377 nM | 5 nM | 

Compounds with a lower Ki (D2 receptor), results first:

Ki (D2 receptor) | Ki (D3 receptor; [1]) | Compound | Ki (D3 receptor)
165 nM | 17 nM | N-{4-(1,2,3,4-tetrahydrobenz[f]isoquinolin-2-yl)butyl}-fluoren-9-one-3-carboxamide hydrochloride [Compound 6] | 
198 nM | 9 nM | O=C(NCCCCN1CCN2c3ccccc3CCC2C1)c1ccc2c(c1)Cc1ccccc1-2 (stereo not drawn) [Compound 14, N-{4-(2,3,4,4a,5,6-hexahydro-1H-pyrazino[1,2-a]quinolin-2-yl)butyl}-fluorene-2-carboxamide hydrochloride] | 
127 nM | 8 nM | O=C(NCCCCN1CCc2c(ccc3ccccc23)C1)c1cnc2ccccc2c1 [Compound 1, N-{4-(1,2,3,4-tetrahydrobenz[f]isoquinolin-2-yl)butyl}-quinoline-3-carboxamide hydrochloride] | 
